≈ marks a conversion by molar mass, not a printed value.
Assays:
Shigella dysenteriae = test: Antibacterial activity against Shigella dysenteriae ATCC 51252 after 24 hrs by micro broth dilution method; format: functional; settings: ATCC 51252, 24 h
Escherichia coli = test: Antibacterial activity against Escherichia coli DH52 after 24 hrs by micro broth dilution method; format: functional; settings: DH52, 24 h
Bacillus sp. = test: Antibacterial activity against Bacillus proteus ATCC 13315 after 24 hrs by micro broth dilution method; format: functional; settings: Bacillus sp. (in: firmicutes), ATCC 13315, 24 h
Pseudomonas aeruginosa = test: Antibacterial activity against Pseudomonas aeruginosa ATCC 27853 after 24 hrs by micro broth dilution method; format: functional; settings: ATCC 27853, 24 h
[1] = Ionization constant, pKa of the compound by UV spectroscopy; format: physicochemical
Bacillus spizizenii = test: Antibacterial activity against Bacillus subtilis ATCC 6633 after 24 hrs by micro broth dilution method; format: functional; settings: ATCC 6633, 24 h
Candida albicans = test: Antifungal activity against Candida albicans ATCC 90029 after 24 hrs by micro broth dilution method; format: functional; settings: ATCC 90029, 24 h
Micrococcus luteus = test: Antibacterial activity against Micrococcus luteus ATCC 4698 after 24 hrs by micro broth dilution method; format: functional; settings: ATCC 4698, 24 h
Staphylococcus aureus [2] = test: Antibacterial activity against Staphylococcus aureus ATCC 25923 after 24 hrs by micro broth dilution method; format: functional; settings: ATCC 25923, 24 h
Staphylococcus aureus [3] = test: Antibacterial activity against methicillin-resistant Staphylococcus aureus N315 after 24 hrs by micro broth dilution method; format: functional; settings: N315, 24 h
[4] = n-octanol/water partition coefficient, log P of the compound at 25 deg C after 24 hrs by saturation shake flask based UV spectroscopy; format: physicochemical
Aspergillus flavus = test: Antifungal activity against Aspergillus flavus after 24 hrs by micro broth dilution method; format: functional
Candida = test: Antifungal activity against Candida mycoderma after 24 hrs by micro broth dilution method; format: functional
Cyberlindnera jadinii = test: Antifungal activity against Candida utilis ATCC 9950 after 24 hrs by micro broth dilution method; format: functional; settings: Williopsis jadinii, ATCC 9950, 24 h

SMILES	MIC (Shigella dysenteriae)	MIC (Escherichia coli)	MIC (Bacillus sp.)	MIC (Pseudomonas aeruginosa)	pKa [1]	MIC (Bacillus spizizenii)	MIC (Candida albicans)	MIC (Micrococcus luteus)	MIC (Staphylococcus aureus [2])	MIC (Staphylococcus aureus [3])	logP at 24 h [4]	MIC (Aspergillus flavus)	MIC (Candida)	MIC (Cyberlindnera jadinii)
Cc1ccc(N(Cc2nnn[nH]2)Cc2ccc(F)cc2F)cc1	64 µg/mL (≈ 203 µM)	64 µg/mL (≈ 203 µM)	64 µg/mL (≈ 203 µM)	32 µg/mL (≈ 101 µM)	4.23	64 µg/mL (≈ 203 µM)	32 µg/mL (≈ 101 µM)	64 µg/mL (≈ 203 µM)	64 µg/mL (≈ 203 µM)	64 µg/mL (≈ 203 µM)	1.42	32 µg/mL (≈ 101 µM)	16 µg/mL (≈ 50.7 µM)	32 µg/mL (≈ 101 µM)
N#CCN(Cc1ccccc1F)c1ccccc1	512 µg/mL (≈ 2130 µM)	128 µg/mL (≈ 533 µM)	512 µg/mL (≈ 2130 µM)	128 µg/mL (≈ 533 µM)		256 µg/mL (≈ 1070 µM)	128 µg/mL (≈ 533 µM)	256 µg/mL (≈ 1070 µM)	128 µg/mL (≈ 533 µM)	128 µg/mL (≈ 533 µM)		128 µg/mL (≈ 533 µM)	128 µg/mL (≈ 533 µM)	128 µg/mL (≈ 533 µM)
Fc1ccc(CN(Cc2nnn[nH]2)c2ccccc2)c(F)c1	64 µg/mL (≈ 212 µM)	64 µg/mL (≈ 212 µM)	64 µg/mL (≈ 212 µM)	32 µg/mL (≈ 106 µM)	4.13	64 µg/mL (≈ 212 µM)	64 µg/mL (≈ 212 µM)	64 µg/mL (≈ 212 µM)	64 µg/mL (≈ 212 µM)	32 µg/mL (≈ 106 µM)	1.36	32 µg/mL (≈ 106 µM)	16 µg/mL (≈ 53.1 µM)	16 µg/mL (≈ 53.1 µM)
CCCCCCN(CC#N)c1ccccc1	512 µg/mL (≈ 2370 µM)	128 µg/mL (≈ 592 µM)	256 µg/mL (≈ 1180 µM)	512 µg/mL (≈ 2370 µM)		256 µg/mL (≈ 1180 µM)	256 µg/mL (≈ 1180 µM)	256 µg/mL (≈ 1180 µM)	256 µg/mL (≈ 1180 µM)	512 µg/mL (≈ 2370 µM)		128 µg/mL (≈ 592 µM)	256 µg/mL (≈ 1180 µM)	256 µg/mL (≈ 1180 µM)
COc1ccc(N(CC#N)Cc2ccc(Cl)cc2Cl)cc1	128 µg/mL (≈ 398 µM)	256 µg/mL (≈ 797 µM)	128 µg/mL (≈ 398 µM)	256 µg/mL (≈ 797 µM)		256 µg/mL (≈ 797 µM)	64 µg/mL (≈ 199 µM)	256 µg/mL (≈ 797 µM)	128 µg/mL (≈ 398 µM)	128 µg/mL (≈ 398 µM)		128 µg/mL (≈ 398 µM)	64 µg/mL (≈ 199 µM)	128 µg/mL (≈ 398 µM)
COc1ccc(N(Cc2nnn[nH]2)Cc2ccc(F)cc2F)cc1	64 µg/mL (≈ 193 µM)	64 µg/mL (≈ 193 µM)	64 µg/mL (≈ 193 µM)	64 µg/mL (≈ 193 µM)	4.31	64 µg/mL (≈ 193 µM)	32 µg/mL (≈ 96.6 µM)	64 µg/mL (≈ 193 µM)	64 µg/mL (≈ 193 µM)	64 µg/mL (≈ 193 µM)	1.37	32 µg/mL (≈ 96.6 µM)	16 µg/mL (≈ 48.3 µM)	16 µg/mL (≈ 48.3 µM)
Fc1ccc(CN(Cc2nnn[nH]2)c2ccccc2)cc1	64 µg/mL (≈ 226 µM)	64 µg/mL (≈ 226 µM)	128 µg/mL (≈ 452 µM)	64 µg/mL (≈ 226 µM)	4.2	64 µg/mL (≈ 226 µM)	32 µg/mL (≈ 113 µM)	256 µg/mL (≈ 904 µM)	64 µg/mL (≈ 226 µM)	64 µg/mL (≈ 226 µM)	1.26	32 µg/mL (≈ 113 µM)	16 µg/mL (≈ 56.5 µM)	16 µg/mL (≈ 56.5 µM)
Clc1ccc(CN(Cc2nnn[nH]2)c2ccccc2)cc1	64 µg/mL (≈ 214 µM)	32 µg/mL (≈ 107 µM)	32 µg/mL (≈ 107 µM)	64 µg/mL (≈ 214 µM)	4.38	32 µg/mL (≈ 107 µM)	16 µg/mL (≈ 53.4 µM)	64 µg/mL (≈ 214 µM)	64 µg/mL (≈ 214 µM)	128 µg/mL (≈ 427 µM)	1.39	32 µg/mL (≈ 107 µM)	16 µg/mL (≈ 53.4 µM)	32 µg/mL (≈ 107 µM)
CCCCCCN(Cc1nnn[nH]1)c1ccccc1	128 µg/mL (≈ 494 µM)	128 µg/mL (≈ 494 µM)	128 µg/mL (≈ 494 µM)	128 µg/mL (≈ 494 µM)	4.78	128 µg/mL (≈ 494 µM)	64 µg/mL (≈ 247 µM)	128 µg/mL (≈ 494 µM)	128 µg/mL (≈ 494 µM)	256 µg/mL (≈ 987 µM)	2.18	64 µg/mL (≈ 247 µM)	64 µg/mL (≈ 247 µM)	64 µg/mL (≈ 247 µM)
N#CCN(Cc1ccc(Cl)cc1)c1ccccc1	128 µg/mL (≈ 499 µM)	128 µg/mL (≈ 499 µM)	128 µg/mL (≈ 499 µM)	64 µg/mL (≈ 249 µM)		128 µg/mL (≈ 499 µM)	128 µg/mL (≈ 499 µM)	128 µg/mL (≈ 499 µM)	128 µg/mL (≈ 499 µM)	256 µg/mL (≈ 997 µM)		256 µg/mL (≈ 997 µM)	128 µg/mL (≈ 499 µM)	128 µg/mL (≈ 499 µM)
CCCCCCCCN(CC#N)c1ccccc1	512 µg/mL (≈ 2100 µM)	128 µg/mL (≈ 524 µM)	256 µg/mL (≈ 1050 µM)	512 µg/mL (≈ 2100 µM)		256 µg/mL (≈ 1050 µM)	256 µg/mL (≈ 1050 µM)	256 µg/mL (≈ 1050 µM)	256 µg/mL (≈ 1050 µM)	256 µg/mL (≈ 1050 µM)		256 µg/mL (≈ 1050 µM)	64 µg/mL (≈ 262 µM)	256 µg/mL (≈ 1050 µM)
CCn1cc(C(=O)O)c(=O)c2cc(F)c(N3CCNCC3)cc21 [NORFLOXACIN]	0.5 µg/mL (≈ 1.57 µM)	0.5 µg/mL (≈ 1.57 µM)	1 µg/mL (≈ 3.13 µM)	0.5 µg/mL (≈ 1.57 µM)		1 µg/mL (≈ 3.13 µM)		0.5 µg/mL (≈ 1.57 µM)	2 µg/mL (≈ 6.26 µM)	0.5 µg/mL (≈ 1.57 µM)				
Cc1ccc(N(CC#N)Cc2ccc(Cl)cc2Cl)cc1	256 µg/mL (≈ 839 µM)	256 µg/mL (≈ 839 µM)	512 µg/mL (≈ 1680 µM)	256 µg/mL (≈ 839 µM)		512 µg/mL (≈ 1680 µM)	64 µg/mL (≈ 210 µM)	512 µg/mL (≈ 1680 µM)	128 µg/mL (≈ 419 µM)	128 µg/mL (≈ 419 µM)		128 µg/mL (≈ 419 µM)	512 µg/mL (≈ 1680 µM)	64 µg/mL (≈ 210 µM)
